Data reported in publication PMC8911971, “Detection of Bacterial α-L-Fucosidases with an Ortho-Quinone Methide-Based Probe and Mapping of the Probe-Protein Adducts” (Molecules, 2022).

How the values were obtained:
Format in all cases: biochemical
BfFucH = target: T1, BfFucH (Bacteroides fragilis, UniProt Q5LAD6); assay: block of AH062 probe labelling, blot chemiluminescence; conditions: 100 uM inhibitor preincubated, 350 uM AH062, PBS pH 7.4; competitive
T1 construct: gene BF9343_3156; codon-optimized gene in pET47b+, expressed in E. coli BL21(DE3), Ni-NTA and Superdex 200 purified; about 50 kDa
T1 sequence (Q5LAD6 21-434): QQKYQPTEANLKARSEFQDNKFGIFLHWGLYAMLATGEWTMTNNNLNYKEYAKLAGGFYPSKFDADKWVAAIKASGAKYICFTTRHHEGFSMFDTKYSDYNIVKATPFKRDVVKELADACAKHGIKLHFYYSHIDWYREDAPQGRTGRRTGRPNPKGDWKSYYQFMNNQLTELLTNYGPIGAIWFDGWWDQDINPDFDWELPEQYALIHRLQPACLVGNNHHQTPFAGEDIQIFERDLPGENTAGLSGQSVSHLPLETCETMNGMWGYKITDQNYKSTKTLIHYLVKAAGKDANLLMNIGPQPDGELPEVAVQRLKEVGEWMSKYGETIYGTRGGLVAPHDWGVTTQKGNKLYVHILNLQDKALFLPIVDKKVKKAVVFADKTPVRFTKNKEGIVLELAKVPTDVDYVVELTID

TmFuc = target: T2, TmFuc (Thermotoga maritima, UniProt Q9WYE2); assay: pepsin digest LC-MS/MS of probe adducts; conditions: covalent after turnover to quinone methide; adducts at W80 or W105, outside the active site
T2 construct: gene TM_0306; recombinant, commercial (Megazyme)
T2 sequence (Q9WYE2 1-449): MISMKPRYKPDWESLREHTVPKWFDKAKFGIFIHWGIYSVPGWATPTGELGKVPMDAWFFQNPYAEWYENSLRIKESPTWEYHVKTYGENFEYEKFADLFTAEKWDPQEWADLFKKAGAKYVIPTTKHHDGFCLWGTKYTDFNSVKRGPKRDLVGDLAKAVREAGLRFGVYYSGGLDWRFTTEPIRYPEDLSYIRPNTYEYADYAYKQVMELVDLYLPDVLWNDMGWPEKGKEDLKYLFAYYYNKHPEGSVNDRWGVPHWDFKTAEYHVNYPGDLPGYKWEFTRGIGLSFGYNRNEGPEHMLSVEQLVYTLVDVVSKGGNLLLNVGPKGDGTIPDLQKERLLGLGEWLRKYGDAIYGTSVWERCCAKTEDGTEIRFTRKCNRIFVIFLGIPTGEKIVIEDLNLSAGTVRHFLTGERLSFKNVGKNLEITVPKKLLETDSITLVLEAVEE

AfcA = target: T3, AfcA (Bifidobacterium bifidum, UniProt Q6JV24); assay: probe labelling, click biotinylation, blot chemiluminescence; conditions: 350 uM probe, PBS pH 7.4, 37 C or room temperature (Figure 1); covalent after turnover to quinone methide
T3 construct: catalytic GH95 fragment, residues 577-1474, C-terminal GGSGGSHHHHHHHH tag; pMAL-c4x-1-H(RBS)+ in E. coli BL21(DE3), Ni-NTA and Superdex 200 purified
T3 sequence (Q6JV24 entry or part of it): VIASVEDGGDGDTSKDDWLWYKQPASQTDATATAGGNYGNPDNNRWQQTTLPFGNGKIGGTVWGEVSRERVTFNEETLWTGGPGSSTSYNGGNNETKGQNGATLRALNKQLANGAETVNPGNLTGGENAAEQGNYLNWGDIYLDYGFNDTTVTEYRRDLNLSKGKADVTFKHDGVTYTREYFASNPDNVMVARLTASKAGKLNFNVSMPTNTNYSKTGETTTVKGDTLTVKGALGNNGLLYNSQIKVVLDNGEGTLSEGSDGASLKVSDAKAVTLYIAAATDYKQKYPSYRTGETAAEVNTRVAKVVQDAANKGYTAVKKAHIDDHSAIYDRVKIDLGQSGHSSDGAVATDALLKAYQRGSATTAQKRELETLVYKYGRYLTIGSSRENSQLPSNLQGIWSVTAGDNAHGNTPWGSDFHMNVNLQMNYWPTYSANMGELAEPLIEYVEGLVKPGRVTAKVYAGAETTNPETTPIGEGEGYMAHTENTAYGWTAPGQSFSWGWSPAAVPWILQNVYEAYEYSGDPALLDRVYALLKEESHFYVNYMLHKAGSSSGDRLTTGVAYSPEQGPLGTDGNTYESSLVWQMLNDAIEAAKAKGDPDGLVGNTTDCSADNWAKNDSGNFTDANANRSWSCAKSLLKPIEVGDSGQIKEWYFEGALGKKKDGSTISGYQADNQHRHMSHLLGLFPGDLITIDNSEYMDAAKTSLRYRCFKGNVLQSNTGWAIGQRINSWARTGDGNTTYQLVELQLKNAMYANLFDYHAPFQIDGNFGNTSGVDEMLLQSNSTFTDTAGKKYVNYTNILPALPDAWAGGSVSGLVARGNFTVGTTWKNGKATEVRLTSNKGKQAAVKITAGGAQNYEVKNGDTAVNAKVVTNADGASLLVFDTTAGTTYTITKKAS

Compound | block of AH062 probe labelling, blot chemiluminescence (BfFucH) | pepsin digest LC-MS/MS of probe adducts (TmFuc) | probe labelling, click biotinylation, blot chemiluminescence (AfcA)
C[C@@H]1NC[C@@H](O)[C@H](O)[C@@H]1O [L-fuconojirimycin] | distinguishing the active from the inhibited enzyme (prepared by preincubation with the competitive inhibitor L-fuconojirimycin | – | –
C[C@@H]1O[C@@H](Oc2ccc(NC(=O)CCOCCOCCOCCN=[N+]=[N-])cc2CF)[C@@H](O)[C@H](O)[C@@H]1O [compound 12, 3-(2-(2-(2-azidoethoxy)ethoxy)ethoxy)-N-(3-(fluoromethyl)-4-(((2S,3S,4R,5S,6S)-3,4,5-trihydroxy-6-methyltetrahydro-2H-pyran-2-yl)oxy)phenyl)propanamide] | – | the quinone methide generated from AH062 had labeled either tryptophan W80 or W105 | the probe detected the enzyme in a concentration-dependent manner
